The values below come from paper PMC8893036 (European journal of medicinal chemistry, 2022).

The target in data set [1] is T1, ABCG2 (Homo sapiens, UniProt Q9UNQ0).
T1 sequence (Q9UNQ0 1-655): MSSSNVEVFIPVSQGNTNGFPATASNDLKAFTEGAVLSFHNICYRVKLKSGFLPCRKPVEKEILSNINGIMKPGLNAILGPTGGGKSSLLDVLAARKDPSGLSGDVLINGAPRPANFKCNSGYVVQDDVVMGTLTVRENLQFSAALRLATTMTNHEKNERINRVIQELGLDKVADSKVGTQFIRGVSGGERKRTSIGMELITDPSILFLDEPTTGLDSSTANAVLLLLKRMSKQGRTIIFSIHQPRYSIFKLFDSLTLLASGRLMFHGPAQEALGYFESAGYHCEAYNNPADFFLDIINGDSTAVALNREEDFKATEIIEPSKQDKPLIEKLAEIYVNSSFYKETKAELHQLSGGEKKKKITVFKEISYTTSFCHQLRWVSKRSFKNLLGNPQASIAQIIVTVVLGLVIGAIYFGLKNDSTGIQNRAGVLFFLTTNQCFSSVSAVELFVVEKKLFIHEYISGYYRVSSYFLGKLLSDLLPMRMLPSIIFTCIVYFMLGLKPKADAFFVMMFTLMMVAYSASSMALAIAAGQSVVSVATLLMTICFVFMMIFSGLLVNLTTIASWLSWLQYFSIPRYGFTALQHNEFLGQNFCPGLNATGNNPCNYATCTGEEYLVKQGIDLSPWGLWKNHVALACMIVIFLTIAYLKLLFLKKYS

For data set [2], the target named is T2, human A3 adenosine receptor (Homo sapiens, UniProt P0DMS8).
T2 sequence (P0DMS8 1-318): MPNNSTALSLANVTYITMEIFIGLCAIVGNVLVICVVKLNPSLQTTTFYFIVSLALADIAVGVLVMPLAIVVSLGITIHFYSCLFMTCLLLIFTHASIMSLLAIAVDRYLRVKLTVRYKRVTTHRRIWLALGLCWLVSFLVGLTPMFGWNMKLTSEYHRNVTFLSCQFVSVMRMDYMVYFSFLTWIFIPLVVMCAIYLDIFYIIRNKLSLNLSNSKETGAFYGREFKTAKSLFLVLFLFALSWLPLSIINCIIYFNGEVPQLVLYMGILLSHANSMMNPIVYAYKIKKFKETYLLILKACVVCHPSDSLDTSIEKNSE
The note with it: agonists; Tables S1 – S4; cited from earlier work.

Data set [3] deals with T1, ABCG2. The experiment in a line: in vitro. The note with it: pH 6.8.
The test system of another data set is P-gp (ABCB1). The note with it: cited from earlier work.
In data set [4] the target is T1, ABCG2. Description: ATPase activity of ABCG2, total membranes of High-Five insect cells.
The next data set relates to human A2A receptor. The note with it: cited from earlier work.
The target of data set [5] is mouse A3 adenosine receptor. The note with it: read-out: A3 adenosine receptor affinity Ki; mouse homologue; cited from earlier work.
Another data set deals with human A1 receptor. The note with it: cited from earlier work.

Read-outs that look alike come from different tables or passages of the source.

`CCCNc1nc(C#Cc2ccc(Cl)s2)nc2c1ncn2[C@@H]1O[C@H](C(=O)NC)[C@@H](O)[C@H]1O` [Compound 33]: at ABCG2 [1], the “modulation of ABCG2 ATP hydrolysis” value is “stimulated ATP hydrolysis at multiple concentrations”.

As to `CNC(=O)[C@]12C[C@@H]1[C@@H](n1cnc3c(NCc4cccc(Cl)c4)nc(-n4cc(-c5ccc(F)c(F)c5)nn4)nc31)[C@H](O)[C@@H]2O` [Compound 28], at ABCG2 [1] (human, 20 min, 2.5 μM, pH 6.8), the “modulation of ABCG2 ATP hydrolysis” value was “inhibited only at 10 μM”.

Take `CNC(=O)[C@]12C[C@@H]1[C@@H](n1cnc3c(NCc4cccc(-n5cc(-c6ccc(F)c(F)c6)nn5)c4)nc(C#Cc4ccc(C(F)(F)F)cc4)nc31)[C@H](O)[C@@H]2O` [Compound 21]: the “modulation of ABCG2 ATP hydrolysis” value at ABCG2 [1] (human, 20 min, 2.5 μM, pH 6.8) is recorded as “inhibited only at 10 μM”.

For the compound `CNC(=O)[C@]12C[C@@H]1[C@@H](n1cnc3c(NCc4cccc(-n5cc(-c6ccc(F)c(F)c6)nn5)c4)nc(C#Cc4cc(F)c(F)c(F)c4)nc31)[C@H](O)[C@@H]2O` [Compound 20], at ABCG2 [1], the “modulation of ABCG2 ATP hydrolysis” value is “inhibited ATP hydrolysis at both concentrations”.

Regarding `CNC(=O)[C@]12C[C@@H]1[C@@H](n1cnc3c(NCc4cccc(-n5cc(-c6ccc(F)c(F)c6)nn5)c4)nc(C#Cc4ccc(F)cc4F)nc31)[C@H](O)[C@@H]2O` [Compound 19], on ABCG2 [1] (human, 20 min, 2.5 μM, pH 6.8), the “modulation of ABCG2 ATP hydrolysis” value is on record as “inhibited only at 10 μM”.

On to `CCCOC(=O)[C@]12C[C@@H]1[C@@H](n1cnc3c(NC)nc(C#Cc4ccc(Cl)s4)nc31)[C@H](O)[C@@H]2O` [Compound 45], for which the “modulation of ABCG2 ATP hydrolysis” value on ABCG2 [1] was “stimulated ATP hydrolysis at multiple concentrations”. Moreover, in data set [2], the “human A3 adenosine receptor affinity” value is reported as “single digit nM affinity”.

Consider `CNc1nc(C#Cc2ccc(Cl)s2)nc2c1ncn2[C@H]1[C@H](O)[C@H](O)[C@@]2(C(=O)Oc3ccccc3)C[C@H]12` [Compound 50], for which, on ABCG2 [1], the “modulation of ABCG2 ATP hydrolysis” value was “stimulated ATP hydrolysis at multiple concentrations”. The “human A3 adenosine receptor affinity” value in data set [2] is given as “single digit nM affinity”.

Consider `CNC(=O)[C@]12C[C@@H]1[C@@H](n1cnc3c(NCc4cccc(-n5cc(-c6ccc(F)c(F)c6)nn5)c4)nc(C#Cc4ccc(F)cc4)nc31)[C@H](O)[C@@H]2O` [Compound 16], for which the inhibition at 20 min, 2.5 µM against ABCG2 [3] is not below 50%.

As to `CNC(=O)[C@]12C[C@@H]1[C@@H](n1cnc3c(NCc4cccc(-n5cc(-c6ccc(F)c(F)c6)nn5)c4)nc(C#Cc4ccc(F)c(F)c4)nc31)[C@H](O)[C@@H]2O` [Compound 17], the “effect on ATPase activity of P-gp” value in the data set with P-gp (ABCB1) is “partially inhibited the basal ATPase activity of P-gp”. Besides, the “human A3 adenosine receptor affinity” value in data set [2] is “single digit nM affinity”.

For the compound `CNC(=O)[C@H]1O[C@@H](n2cnc3c(NCc4cccc(I)c4)nc(Cl)nc32)[C@H](O)[C@@H]1O` [Compound 4, reference compound], the “modulation of ABCG2 ATP hydrolysis” value at ABCG2 [1] is recorded as “stimulated ATP hydrolysis at multiple concentrations”.

`CNC(=O)[C@]12C[C@@H]1[C@@H](n1cnc3c(NCc4cccc(Cl)c4)nc(C#Cc4ccc(Cl)s4)nc31)[C@H](O)[C@@H]2O` [Compound 29]: the “modulation of ABCG2 ATP hydrolysis” value at ABCG2 [1] was “stimulated ATP hydrolysis at multiple concentrations”.

Consider `CNC(=O)[C@H]1O[C@@H](n2cnc3c(NC)nc(C#Cc4ccc(Cl)s4)nc32)[C@H](O)[C@@H]1O` [Compound 32], for which, in the data set on P-gp (ABCB1), the “effect on ATPase activity of P-gp” value is “very weak at P-gp”.

As for `CNC(=O)[C@]12C[C@@H]1[C@@H](n1cnc3c(NCc4cccc(Cl)c4)nc(C#Cc4cccc(Cl)c4)nc31)[C@H](O)[C@@H]2O` [Compound 10], at ABCG2 [4], the “modulation of ABCG2 ATP hydrolysis” value is “stimulated ATP hydrolysis at 2.5 μM, but not 10 μM”.

With `CCOC(=O)[C@]12C[C@@H]1[C@@H](n1ccc3c(NCCc4ccccc4)nc(C#Cc4ccccc4)nc31)[C@H](O)[C@@H]2O` [Compound 60], the “activity at human A2A receptor” value in the data set with human A2A receptor was “inactive”. Further, the Ki in data set [5] is more than 10 µM. For the same compound, the “activity at human A1 receptor” value with human A1 receptor is “inactive”.

For `COc1cc(CCNC2=NC(C#Cc3ccc(Cl)s3)=NC3=NC=NC32)ccc1O` (centres unmarked) [Compound 37c], the “activity at human A2A receptor” value with human A2A receptor (adenine series) is “inactive”. Further, the “activity at human A1 receptor” value in the data set with human A1 receptor (adenine series) is “inactive”.

On to `CNc1nc(C#Cc2ccc(Cl)s2)nc2c1ncn2[C@H]1[C@H](O)[C@H](O)[C@@]2(C(=O)OC)C[C@H]12` [Compound 27], for which the “modulation of ABCG2 ATP hydrolysis” value on ABCG2 [1] was “stimulated ATP hydrolysis at multiple concentrations”.

Take `CCCNc1nc(C#Cc2ccc(Cl)s2)nc2c1ncn2[C@H]1[C@H](O)[C@H](O)[C@@]2(C(=O)NC)C[C@H]12` [Compound 26]: on ABCG2 [1], the “modulation of ABCG2 ATP hydrolysis” value is on record as “stimulated ATP hydrolysis at multiple concentrations”.

As to `CNC(=O)[C@]12C[C@@H]1[C@@H](n1cnc3c(NC)nc(C#Cc4ccc(Cl)s4)nc31)[C@H](O)[C@@H]2O` [Compound 25], on ABCG2 [4], the “modulation of ABCG2 ATP hydrolysis” value is listed as “stimulated ATP hydrolysis at 2.5 μM, but not 10 μM”.

On to `CCOC(=O)[C@]12C[C@@H]1[C@@H](n1ccc3c(NCCCc4ccc(OC)c(O)c4)nc(C#Cc4ccc(Cl)s4)nc31)[C@H](O)[C@@H]2O` [Compound 64], for which the “ATPase activity of ABCG2 % Stimulation (upward arrow)” value at ABCG2 [1] (human, 20 min, 2.5 μM, pH 6.8) is listed as not below 50%.

As for `CNC(=O)[C@]12C[C@@H]1[C@@H](n1cnc3c(NCc4cccc(Cl)c4)nc(C#Cc4ccccc4)nc31)[C@H](O)[C@@H]2O` [Compound 8], the “modulation of ABCG2 ATP hydrolysis” value on ABCG2 [4] is “stimulated ATP hydrolysis at 2.5 μM, but not 10 μM”.

For the compound `CCOC(=O)[C@]12C[C@@H]1[C@@H](n1ccc3c(NCCCc4ccc(OC)c(O)c4)nc(C#Cc4ccccc4)nc31)[C@H](O)[C@@H]2O` [Compound 63], the “ATPase activity of ABCG2 % Stimulation (upward arrow)” value on ABCG2 [1] (human, 20 min, 2.5 μM, pH 6.8) is reported as not below 50%.

In the case of `CCOC(=O)[C@]12C[C@@H]1[C@@H](n1cnc3c(NCCc4ccc(O)c(OC)c4)nc(C#Cc4ccc(Cl)s4)nc31)[C@H](O)[C@@H]2O` [Compound 55], the “ATPase activity of ABCG2 % Stimulation (upward arrow)” value on ABCG2 [1] (human, 20 min, 2.5 μM, pH 6.8) is not below 50%.

For `CNC(=O)[C@]12C[C@@H]1[C@@H](n1cnc3c(N[C@H]4C[C@@H]4c4ccc(F)c(F)c4)nc(C#Cc4cccc(F)c4)nc31)[C@H](O)[C@@H]2O` [Compound 15], on ABCG2 [1] (human, 20 min, 2.5 μM, pH 6.8), the “modulation of ABCG2 ATP hydrolysis” value is recorded as “stimulated ATP hydrolysis at 2.5 μM, but not 10 μM”. For the same compound, in data set [2], the “human A3 adenosine receptor affinity” value is given as “single digit nM affinity”.

With `CNC(=O)[C@]12C[C@@H]1[C@@H](n1cnc3c(NCc4cccc(Cl)c4)nc(C#Cc4ccc(F)c(F)c4)nc31)[C@H](O)[C@@H]2O` [Compound 5], the “modulation of ABCG2 ATP hydrolysis” value on ABCG2 [4] is on record as “stimulated ATP hydrolysis at multiple concentrations”. Further, the “ATPase activity of ABCG2 % Stimulation (upward arrow)” value at ABCG2 [4] (2.5 μM, basal ATPase activity = 0%, mean ± SD, three experiments) is given as not below 50%. The “effect on ATPase activity of P-gp” value in the data set with P-gp (ABCB1) is on record as “stimulate the ATPase activity of P-gp”. In addition, the “human A3 adenosine receptor affinity” value in data set [2] is “single digit nM affinity”.

As to `O[C@@H]1[C@H](O)[C@@H]2C[C@@H]2[C@H]1n1cnc2c(NCc3cccc(Cl)c3)nc(C#Cc3ccc(F)c(F)c3)nc21` [Compound 30], the “increase of P-gp ATPase activity” value with P-gp (ABCB1) (2.5 μM) is recorded as 116%.
